In PMC7753147, “High-throughput determination of protein affinities using unmodified peptide libraries in nanomolar scale” (iScience, 2020):

Columns and labels:
gephE = assay: µSPOT peptide microarray binding assay with recombinant gephE
FL-geph = assay: µSPOT peptide microarray binding assay with full-length geph
native geph = assay: µSPOT peptide microarray binding assay with native geph from mouse brain lysate
[1] = µSPOT peptide microarray, GlyRβ full positional scan, recombinant gephE, intensity normalised to wild-type sequence DLRSNDFSIVGSLPR (=1)
[2] = µSPOT peptide microarray, GlyRβ full positional scan, intensity normalised to wild-type sequence DLRSNDFSIVGSLPR (=1)
[3] = µSPOT peptide microarray, GlyRβ full positional scan, native geph from mouse brain lysate, intensity normalised to wild-type sequence DLRSNDFSIVGSLPR (=1)
[4] = µSPOT full positional scan of GlyRβ 15-mer DLRSNDFSIVGSLPR, intensity normalised to wild-type sequence (= 1)
[5] = µSPOT full positional scan of GlyRβ 15-mer DLRSNDFSIVGSLPR, native geph, intensity normalised to wild-type sequence (= 1)

Row | Sequence | gephE Binding Intensity [norm.] (gephE; [1]) | Fl-geph Binding Intensity [norm.] (FL-geph; [2]) | Native geph Binding Intensity [norm.] (native geph; [3]) | gephE Binding Intensity [norm.] (gephE; [4]) | Fl-geph Binding Intensity [norm.] (FL-geph; [4]) | Native geph Binding Intensity [norm.] (native geph; [5])
1 | DLRSNDFHIVGSLPR [GlyRβ_Full_Positional_Scan_153, GlyR β 414-428 variant S421H] | 0.8 | 0.95 | 0.48 |  |  | 
2 | DLSSNDFSIVGSLPR [GlyRβ_Full_Positional_Scan_055] | 0.87 | 1.4 | 1.35 |  |  | 
3 | DLRSNDFSIVGSPPR [GlyRβ_Full_Positional_Scan_245] |  |  |  | 0.89 | 0.96 | 0.78
4 | DLRSNDFSIVGSLPW [GlyRβ_Full_Positional_Scan_288] |  |  |  | 0.89 | 0.84 | 0.76
5 | DLRSNDNSIVGSLPR [GlyRβ_Full_Positional_Scan_139, GlyR β 414-428 variant F420N] | 0.52 | 0.63 | 0.4 |  |  | 
6 | DLRSNNFSIVGSLPR [GlyRβ_Full_Positional_Scan_119] | 0.89 | 0.69 | 0.57 |  |  | 
7 | DLRSNDFSIVGSHPR [GlyRβ_Full_Positional_Scan_253] |  |  |  | 1.08 | 1.02 | 1.16
8 | DLPSNDFSIVGSLPR [GlyRβ_Full_Positional_Scan_045] | 0.93 | 1.47 | 1.5 |  |  | 
9 | DKRSNDFSIVGSLPR [GlyRβ_Full_Positional_Scan_034] | 0.88 | 0.94 | 0.53 |  |  | 
10 | DLRSNDFSIVGSNPR [GlyRβ_Full_Positional_Scan_259] |  |  |  | 0.9 | 1.03 | 0.97
11 | DLRSNDFSAVGSLPR [GlyRβ_Full_Positional_Scan_161, GlyR β 414-428 variant I422A] | 0.56 | 0.81 | 0.52 |  |  | 
12 | LLRSNDFSIVGSLPR [GlyRβ_Full_Positional_Scan_004] | 1.18 | 1.1 | 0.66 |  |  | 
13 | DLRSNDFSIMGSLPR [GlyRβ_Full_Positional_Scan_198, GlyR β 414-428 variant V423M] | 0.44 | 0.86 | 0.38 |  |  | 
14 | DLRSNDFSIVSSLPR [GlyRβ_Full_Positional_Scan_215, GlyR β 414-428 variant G424S] |  |  |  | 0.4 | 0.44 | 0.2
15 | DLRSNDFSIVGSLPC [GlyRβ_Full_Positional_Scan_297] |  |  |  | 0.83 | 1.04 | 0.97
16 | DLRSNDFSINGSLPR [GlyRβ_Full_Positional_Scan_199, GlyR β 414-428 variant V423N] | 0.4 | 0.79 | 0.17 |  |  | 
17 | DLRSNDFSIVGSFPR [GlyRβ_Full_Positional_Scan_247] |  |  |  | 0.9 | 1.16 | 0.96
18 | DLRLNDFSIVGSLPR [GlyRβ_Full_Positional_Scan_064] | 0.9 | 0.89 | 0.88 |  |  | 
19 | DLRSNDFSIVGSLLR [GlyRβ_Full_Positional_Scan_264] |  |  |  | 0.66 | 0.74 | 0.32
20 | DLRSNDFSIVGQLPR [GlyRβ_Full_Positional_Scan_240] |  |  |  | 0.84 | 1.12 | 1.4
21 | DLRSNDPSIVGSLPR [GlyRβ_Full_Positional_Scan_125, GlyR β 414-428 variant F420P] | 0.54 | 0.65 | 0.34 |  |  | 

Row | Sequence | gephE Binding Intensity [norm.] (gephE; [1]) | Fl-geph Binding Intensity [norm.] (FL-geph; [2]) | Native geph Binding Intensity [norm.] (native geph; [3]) | gephE Binding Intensity [norm.] (gephE; [4]) | Fl-geph Binding Intensity [norm.] (FL-geph; [4]) | Native geph Binding Intensity [norm.] (native geph; [5])
22 | DLRANDFSIVGSLPR [GlyRβ_Full_Positional_Scan_061] | 0.98 | 0.86 | 1.12 |  |  | 
23 | DLRSNDFSIVNSLPR [GlyRβ_Full_Positional_Scan_219, GlyR β 414-428 variant G424N] |  |  |  | 0.38 | 0.41 | 0.17
24 | DLRSNIFSIVGSLPR [GlyRβ_Full_Positional_Scan_103] | 0.79 | 0.97 | 0.35 |  |  | 
25 | DLRSNDFSITGSLPR [GlyRβ_Full_Positional_Scan_196, GlyR β 414-428 variant V423T] | 0.66 | 0.97 | 0.59 |  |  | 
26 | DLRSNDFSIVGSIPR [GlyRβ_Full_Positional_Scan_243] |  |  |  | 0.94 | 1 | 0.93
27 | DLRSNDASIVGSLPR [GlyRβ_Full_Positional_Scan_121, GlyR β 414-428 variant F420A] | 0.48 | 0.53 | 0.32 |  |  | 
28 | DLRSNDFLIVGSLPR [GlyRβ_Full_Positional_Scan_144, GlyR β 414-428 variant S421L] | 0.6 | 0.54 | 0.2 |  |  | 
29 | DLISNDFSIVGSLPR [GlyRβ_Full_Positional_Scan_043] | 0.9 | 1.35 | 1.69 |  |  | 
30 | DLRSNDFSIVESLPR [GlyRβ_Full_Positional_Scan_211, GlyR β 414-428 variant G424E] | 0.23 | 0.18 | 0.14 |  |  | 
31 | DRRSNDFSIVGSLPR [GlyRβ_Full_Positional_Scan_032] | 0.9 | 0.96 | 0.66 |  |  | 
32 | DLRSNDFSIVISLPR [GlyRβ_Full_Positional_Scan_203, GlyR β 414-428 variant G424I] | 0.48 | 0.52 | 0.29 |  |  | 
33 | DLRSGDFSIVGSLPR [GlyRβ_Full_Positional_Scan_082] | 0.9 | 0.9 | 0.77 |  |  | 
34 | DLRSNDFSIVGVLPR [GlyRβ_Full_Positional_Scan_226] |  |  |  | 0.69 | 1.01 | 0.74
35 | DLRSNDFSIVLSLPR [GlyRβ_Full_Positional_Scan_204, GlyR β 414-428 variant G424L] | 0.57 | 0.53 | 0.23 |  |  | 
36 | DLRSNDFSIFGSLPR [GlyRβ_Full_Positional_Scan_187, GlyR β 414-428 variant V423F] | 0.64 | 0.7 | 0.43 |  |  | 
37 | DLRSNKFSIVGSLPR [GlyRβ_Full_Positional_Scan_114] | 0.8 | 0.98 | 0.37 |  |  | 
38 | DLRSNDFSIVRSLPR [GlyRβ_Full_Positional_Scan_212, GlyR β 414-428 variant G424R] |  |  |  | 0.57 | 0.6 | 0.17
39 | DLRYNDFSIVGSLPR [GlyRβ_Full_Positional_Scan_069] | 0.96 | 0.83 | 0.93 |  |  | 
40 | DLRSNDFSIVGSLPI [GlyRβ_Full_Positional_Scan_283] |  |  |  | 0.98 | 1.05 | 1.01
41 | DLRSNDFSIAGSLPR [GlyRβ_Full_Positional_Scan_181, GlyR β 414-428 variant V423A] | 0.51 | 0.65 | 0.47 |  |  | 
42 | DLRSNDCSIVGSLPR [GlyRβ_Full_Positional_Scan_137, GlyR β 414-428 variant F420C] | 0.67 | 0.63 | 0.53 |  |  | 
